Assay results published in publication PMC10096129, “Rational Design and Lead Optimisation of Potent Antimalarial Quinazolinediones and Their Cytotoxicity against MCF-7” (Molecules, 2023).
Like-named read-outs stand apart in the source and are kept apart here.

How the values were obtained:
MCF-7 cells = assay: Antiproliferative assay against MCF-7 (MTT, 72 h); assay type: cell-based, Human; settings: for IC50: Homo sapiens, MCF7, MCF-7 cells, 72 h, MTT; for cytotoxicity against MCF-7 cells, in words: compared with the parent compound
Description: Human breast cancer cells (MCF-7) purchased from ATCC were seeded at 2 × 10^3 cells/well on a 96-well black flat-bottom plate and were cultured in high-glucose DMEM (Dulbecco’s modified Eagle medium) supplemented with 10% fetal bovine serum and 1% penicillin/streptomycin. The culture was incubated at 37 °C, 5% CO2 for 24 h. After the incubation period, the test compounds were added into the cell plate at serially diluted concentrations (20, 2, 0.2, 0.02, 0.002, and 0.0002 μM), and the culture was incubated for 72 h at 37 °C, 5% CO2. After the 72 h incubation, the cultured media containing compounds were removed, and the serum-free media containing MTT were added to the same well with additional incubation for 3 h at 37 °C, 5% CO2. After 3 h incubation, the serum-free media containing MTT were removed, and DMSO was added into the same well; the resulting solution was measured for its absorbance at 570 nm using a Multimode Microplate Reader (ENVISION) (PerkinElmer, USA). The IC50 value was calculated using GraphPad. Doxorubicin at 10 µM was used as a positive control in this assay.

P. falciparum 3D7 [1] = assay: Antimalarial assay against P. falciparum 3D7 (48 h growth, DNA fluorescent dye); assay type: cell-based, Plasmodium falciparum; settings: for IC50: Plasmodium falciparum
Description: Plasmodium falciparum strain 3D7 was cultured in complete medium (RPMI-1640 supplemented with 10% Albumax II) using O Rh^+ red blood cells in a microaerobic environment (5% CO2, 5% O2, 90% N2). IC50 assay plates were prepared using fourfold serially diluted test compounds in complete medium to a final volume of 50 μL. Then, 50 μL of parasite inoculum at 2% parasitemia ring stage and 1% hematocrit was added to each well and incubated for 48 h in a microaerobic environment. The assay was terminated by freezing at -20 °C before growth measurement. Parasite growth was measured adding 100 μL of lysis buffer supplemented with 1× DNA fluorescent dye (UltraPower, […], Tokyo, Japan), and the fluorescent signal was measured at 495/530 nm. The IC50 value was calculated by GraphPad Prism 9.0 software (La Jolla, California, USA) using the dose-response (four-parameter) function. Artemisinin at 1 μM and complete medium were used as positive and negative controls, respectively.

P. falciparum 3D7 [2] = system: P. falciparum 3D7; set-up: method as in doi:10.3390/M1358; settings: earlier report of the group; read-out: IC50 against P. falciparum 3D7; cited from earlier work
[3] = system: human ovarian cancer (SKOV3); set-up: method as in earlier work; settings: patent; cited from earlier work
P. falciparum strains = system: P. falciparum strains; set-up: method as in PMID 24900261, PMID 26317851, PMID 28513586; settings: multiple stages of the malaria parasite; cited from earlier work
[4] = Table 2, blood-stage P. falciparum 3D7, various amino-acid linkers, read-out: IC50 (µM) 3D7 ± SD
[5] = P. falciparum 3D7, read-out: antimalarial activity against 3D7
[6] = Table 3, blood-stage P. falciparum 3D7, various amine side chains, read-out: IC50 (µM) 3D7 ± SD

SMILES	IC50 (MCF-7 cells) [µM]	IC50 (P. falciparum 3D7 [1]; [4]) [µM]	IC50 (P. falciparum 3D7 [1]; [6]) [µM]	antimalarial activity against 3D7, in words (P. falciparum 3D7 [1]; P. falciparum 3D7)	also measured
COc1cccc(NC(=O)[C@H](C(C)C)n2c(=O)[nH]c3ccccc3c2=O)c1 [Compound 2]	17.5	0.219 ± 0.024	–	–	IC50 (P. falciparum 3D7 [2]): ~200 nM
CCOC(=O)c1sc(NC(=O)[C@H](C(C)C)n2c(=O)[nH]c3ccccc3c2=O)nc1OC [Compound 3]	–	–	–	–	cytotoxicity against SKOV3, in words [3]: highly potent cytotoxicity
COc1cccc(NCCn2c(=O)[nH]c3ccccc3c2=O)c1 [Compound 4]	–	> 10	–	–	–
COc1cccc(NC(=O)Cn2c(=O)[nH]c3ccccc3c2=O)c1 [Compound 5]	–	> 10	–	–	–
COc1cccc(NC(=O)[C@H](C)n2c(=O)[nH]c3ccccc3c2=O)c1 [Compound 6]	–	> 10	–	–	–
COc1cccc(NC(=O)[C@H](CC(C)C)n2c(=O)[nH]c3ccccc3c2=O)c1 [Compound 7]	–	3.25 ± 0.21	–	–	IC50 (P. falciparum 3D7 [1]; [5]): 1 to 3 µM
CCC(C(=O)Nc1cccc(OC)c1)n1c(=O)[nH]c2ccccc2c1=O (stereo not drawn) [Compound 8]	–	0.586 ± 0.032	–	potent sub-micromolar activity	–
CCC[C@@H](C(=O)Nc1cccc(OC)c1)n1c(=O)[nH]c2ccccc2c1=O [Compound 9]	–	1.11 ± 0.1	–	–	IC50 (P. falciparum 3D7 [1]; [5]): 1 to 3 µM
CC(C)[C@@H](C(=O)Nc1ccccc1)n1c(=O)[nH]c2ccccc2c1=O [Compound 18]	> 20	–	0.607 ± 0.03	dramatic loss in the antimalarial activity	–
CC(C)[C@@H](C(=O)Nc1cccnc1)n1c(=O)[nH]c2ccccc2c1=O [Compound 19]	> 20	–	2.89 ± 0.401	decrease in antimalarial activity	–
CC(C)[C@@H](C(=O)Nc1ccncc1)n1c(=O)[nH]c2ccccc2c1=O [Compound 20]	> 20	–	1.41 ± 0.115	decrease in antimalarial activity	–
CC(C)[C@@H](C(=O)Nc1cccc(F)c1)n1c(=O)[nH]c2ccccc2c1=O [Compound 21]	> 20	–	0.036 ± 0.005	excellent activity	–
CC(C)[C@@H](C(=O)Nc1ccc(F)cc1)n1c(=O)[nH]c2ccccc2c1=O [Compound 22]	> 20	–	0.36 ± 0.034	good antimalarial activity	–
COc1ccccc1CNC(=O)CCn1c(=O)[nH]c2ccsc2c1=O [MMV019066]	–	–	–	–	parasite growth inhibitory activity (P. falciparum strains): < 1 µM
COc1ccccc1CNC(=O)CCn1c(=O)[nH]c2ccccc2c1=O [MMV665916]	–	–	–	–	parasite growth inhibitory activity (P. falciparum strains): < 1 µM

Second part, led by results:

IC50 (MCF-7 cells) [µM]	IC50 (P. falciparum 3D7 [1]; [4]) [µM]	IC50 (P. falciparum 3D7 [1]; [6]) [µM]	SMILES	antimalarial activity against 3D7, in words (P. falciparum 3D7 [1]; P. falciparum 3D7)	also measured
9.74	–	0.038 ± 0.009	CC(C)[C@@H](C(=O)Nc1ccc(F)c(F)c1)n1c(=O)[nH]c2ccccc2c1=O [Compound 23]	–	cytotoxicity against MCF-7 cells, in words (MCF-7 cells): slightly higher cytotoxicity
> 20	–	0.022 ± 0.005	CC(C)[C@@H](C(=O)Nc1cccc(Cl)c1)n1c(=O)[nH]c2ccccc2c1=O [Compound 24]	excellent activity	–
10.5	–	0.711 ± 0.038	CC(C)[C@@H](C(=O)Nc1ccc(Cl)cc1)n1c(=O)[nH]c2ccccc2c1=O [Compound 25]	good antimalarial activity	–
> 20	–	0.406 ± 0.034	CC(C)[C@@H](C(=O)Nc1ccc(Cl)c(Cl)c1)n1c(=O)[nH]c2ccccc2c1=O [Compound 26]	less potent antimalarial	cytotoxicity against MCF-7 cells, in words (MCF-7 cells): slightly higher cytotoxicity
> 20	–	0.059 ± 0.012	CC(C)[C@@H](C(=O)Nc1ccc(F)c(Cl)c1)n1c(=O)[nH]c2ccccc2c1=O [Compound 27]	–	–
> 20	–	> 10	CC(C)[C@@H](C(=O)NCc1ccccc1)n1c(=O)[nH]c2ccccc2c1=O [Compound 28]	dramatic loss in the antimalarial activity	–
> 20	–	> 10	COc1ccc(NC(=O)[C@H](C(C)C)n2c(=O)[nH]c3ccccc3c2=O)cc1 [Compound 29]	dramatic loss in the antimalarial activity	–
